From patent US20250135021A1, “USE OF ANTIBODY-DRUG CONJUGATE, AND COMBINED DRUG AND USE THEREOF” (SHANGHAI MIRACOGEN INC., priority 2021, published 2025)

What was measured:
[1] = system: AZD9291-resistant human large cell lung carcinoma PDX model LUN #2355-128; experiment: Efficacy in AZD9291-resistant human lung cancer PDX model LUN #2355-128; type: in vivo, immunodeficient mice; details: Day 16
Experimental: The human-derived tumor tissue xenograft model (PDX model) is a tumor model established in immunodeficient mice using human tumor tissue, which retains the heterogeneity, molecular diversity and histological characteristics of the primary tumor to the greatest extent. […] In all experiments, the commercially available third-generation EGFR inhibitor AZD9291 was used as a reference drug to compare tumor inhibition activities.
(§1) This experiment was performed in total of 4 groups, including a Vehicle group (ADC-3 vehicle), an AZD9291 administration group (5 mg/kg), and ADC-3 administration groups (1 mg/kg and 3 mg/kg). During the entire experiment, ADC-3 was administered four times in total, via tail vein injection on Day 0, Day 4, Day 8, and Day 12, and AZD9291 was administered 27 times in total, once a day by intragastric administration. The experiment period was 27 days.

[2] = system: AZD9291-resistant human adenosquamous carcinoma of the lung PDX model LUN #2441-118; experiment: Efficacy in AZD9291-resistant human lung cancer PDX model LUN #2441-118; type: in vivo, immunodeficient mice; details: Day 25
Text: (§2) The human-derived tumor tissue xenograft model (PDX model) is a tumor model established in immunodeficient mice using human tumor tissue, which retains the heterogeneity, molecular diversity and histological characteristics of the primary tumor to the greatest extent. It has a high predictive value for the clinical therapeutic effect of drugs and has been increasingly used in cancer research (Hidalgo-2014) in recent years. […] In all experiments, the commercially available third-generation EGFR inhibitor AZD9291 was used as a reference drug to compare tumor inhibition activities.
LUN #2441-118 is an AZD9291-resistant human adenosquamous carcinoma of the lung PDX model. […] During the entire experiment, ADC-3 was administered four times in total, via tail vein injection on Day 0, Day 4, Day 8, and Day 12, and AZD9291 was administered 28 times in total, once a day by intragastric administration. The experiment period was 28 days. […] Tumor-bearing mice had good tolerance to the tested drugs.

[3] = system: AZD9291-resistant human lung adenocarcinoma PDX model LUN #2005-143; experiment: Efficacy in AZD9291-resistant human lung cancer PDX model LUN #2005-143; type: in vivo, immunodeficient mice; details: Day 29
Text: as §2
as §1, with “LUN #2005-143 is an AZD9291-resistant human lung adenocarcinoma (a type of NSCLC) PDX model. This” for “This”, “29” for “27”, “[…] In terms of body weight, all animals in the tested drug groups had good tolerance. […] In this experiment, tumor-bearing mice had good tolerance to the tested drugs.” for “The experiment period was 27 days.”

[4] = system: AZD9291-resistant human adenosquamous carcinoma of the lung PDX model LUN #2210-4a; experiment: Efficacy in AZD9291-resistant human lung cancer PDX model LUN #2210-4a; type: in vivo, immunodeficient mice; details: Day 28
Text: as §2
LUN #2210-4a is an AZD9291-resistant human adenosquamous carcinoma of the lung PDX model. […] During the entire experiment, ADC-3 was administered four times in total, via tail vein injection on Day 0, Day 4, Day 8, and Day 12, and AZD9291 was administered 28 times in total, once a day by intragastric administration. […] Tumor-bearing mice had good tolerance to the tested drugs.

[5] = system: AZD9291-resistant human adenosquamous carcinoma of the lung PDX model LUN #2210-106; experiment: Efficacy in AZD9291-resistant human lung cancer PDX model LUN #2210-106; type: in vivo, immunodeficient mice; details: Day 30
Text: as §2
LUN #2210-106 is an AZD9291-resistant human adenosquamous carcinoma of the lung PDX model. This experiment was performed in total of 4 groups, including a Vehicle group (ADC-3 vehicle), an AZD9291 administration group (5 mg/kg), and ADC-3 administration groups (1 mg/kg and 3 mg/kg). During the entire experiment, ADC-3 was administered four times in total, via tail vein injection on Day 0, Day 4, Day 8, and Day 12, and AZD9291 was administered 30 times in total, once a day by intragastric administration. […] Tumor-bearing mice had good tolerance to the tested drugs.

[6] = system: human lung cancer PDX model LUN #2210-106; experiment: Efficacy of MYK-3, AK103 and their combination in human lung cancer PDX model LUN #2210-106 in Hu-HSC-NPG mice; type: in vivo; details: Day 20
Experimental: LUN #2210-106 is an AZD9291-resistant human adenosquamous carcinoma of the lung PDX model. This experiment was performed in total of 4 groups, including a Vehicle group (ADC-3 vehicle), an ADC-3 administration group (1 mg/kg), an AK103 administration group (5 mg/kg), and an ADC-3 (1 mg/kg)+AK103 (5 mg/kg) administration group. During the entire experiment, ADC-3 was administered three times in total for the ADC-3 single-drug administration group, via tail vein injection on Day 0, Day 4, and Day 8; and AK103 was administered every three days via tail vein injection for the AK103 single-drug administration group, 8 times in total. For the ADC-3+AK103 administration group, ADC-3 was administered three times, and AK103 was administered ten times in total, and their administration modes were the same as those for the single-drug administration groups. The experiment period was 34 days. […] During the period from Day 20 to Day 34, the mean tumor volume of animals in the ADC-3 (1 mg/kg) administration group gradually resumed growth (from 184 mm^3 to 893 mm^3); the mean tumor volume of animals in the ADC-3 (1 mg/kg)+AK103 (5 mg/kg) administration group grew slowly (from 38 mm^3 to 126 mm^3), and on Day 34, complete tumor regression was still observed in 1 out of 6 animals.

[7] = 5 mg/kg intragastric once a day
[8] = AZD9291 dose 3 mg/kg in Table 4

Compound | Relative tumor proliferation rate T/C (%) [1, 7] [%] | Tumor growth inhibition rate TGI % [1, 7] [%] | Tumor inhibition activity ([1]; 5 mg/kg) | Relative tumor proliferation rate T/C (%) [2, 7] [%] | Tumor growth inhibition rate TGI % [2, 7] [%] | Relative tumor proliferation rate T/C (%) [2, 8] [%] | Tumor inhibition activity [2, 8] | Relative tumor proliferation rate T/C (%) [3, 7] [%] | Tumor growth inhibition rate TGI % [3, 7] [%] | Tumor inhibition activity ([3]; 5 mg/kg) | Relative tumor proliferation rate T/C (%) [4, 7] [%] | Tumor growth inhibition rate TGI % [4, 7] [%] | Tumor growth inhibition rate TGI % [4, 8] [%] | Tumor inhibition activity [4, 8] | Relative tumor proliferation rate T/C (%) [5, 7] [%] | Tumor growth inhibition rate TGI % [5, 7] [%] | Tumor inhibition activity ([5]; 5 mg/kg) | Relative tumor proliferation rate T/C (%) ([6]; 5 mg/kg i.v. every three days) | Tumor growth inhibition rate TGI % ([6]; 5 mg/kg i.v. every three days) [%] | Tumor inhibition activity ([6]; 5 mg/kg)
C=CC(=O)Nc1cc(Nc2nccc(-c3cn(C)c4ccccc34)n2)c(OC)cc1N(C)CCN(C)C [AZD9291, osimertinib, reference compound] | 33.61 | 66.39 | ++ (T/C (%) >20% and ≤40%) | 29.35 | 70.65 | 29.35 | ++ (T/C (%) >20% and ≤40%) | 36.90 | 63.10 | ++ (T/C (%) >20% and ≤40%) | 68.99 | 31.01 | 31.01 | + (T/C (%) >40%) | 65.31 | 34.69 | + (T/C (%) >40%) | – | – | –
AK103: anti-PD-1 monoclonal antibody drug and immune checkpoint inhibitor | – | – | – | – | – | – | – | – | – | – | – | – | – | – | – | – | – | 93.61 | 6.39 | + (T/C (%) >40%)
